Assay results published in patent publication US20230277452A1, “COMPOSITIONS, DEVICES AND METHODS FOR TREATING NASAL, OTIC AND OTHER TISSUE INFECTION AND/OR INFLAMMATION” (priority 2020, published 2023).

Tests used:
[1] = Storage stability: impurities/degradants by HPLC; assay type: physicochemical
Method: Particle size and globule size were likewise measured at the start of storage and at the one month or three month interval, respectively, according to USP 729. Impurities were also measured at the start of storage and at the one month or three month intervals, respectively. Viscosity was also measured at the start of storage and at the one month or three month intervals, respectively. Osmolality was also measured at the start of storage and at the one month or three month intervals, respectively, according to USP 785. Briefly, to measure betamethasone dipropionate and betamethasone content as well as impurities/degradants, HPLC was used. […] The 50 mL tubes were then removed from the heat and vortex mixed again for 30 seconds. If necessary, the tubes were returned to the water bath to prevent cooling. […] The tubes were then centrifuged for 30 minutes at 12,000 RPM and supernatant was transferred to a HPLC vial for analysis. The HPLC system was rinsed well with 50:50 acetonitrile:water to remove buffer salts after each run. […] HPLC was run using a Hypersil ODS 10×30 mm, 3 μm column as the Guard Column and a Hypersil ODS 3×150 mm, 3 μm column as the Analytical Column. The column temperature was maintained at 35° C. with a runtime of 45 minutes, a flow rate of 0.5 mL/minute, an injection volume of 3 μL, an autosampler temperature of 30° C., and using a 254 nm (UV absorbance) detector and collecting PDA from 200 nm to 400 nm for identification testing. […] Mobile Phase B was prepared as 88:12 methanol:acetonitrile. […] All mobile phase solutions were mixed well and degassed prior to use. […] A Working Standard Solution was prepared from 3.0 mL of the IS Stock Solution and 8.0 mL of the BD Stock in a 50 mL volumetric flask to which 150 mg of benzyl alcohol reference standard was added and diluent added to volume followed by mixing well. […] System suitability requirements included those in Table 38. The Ratio RT (RRT) in Table 39 can be calculated from the ratio of the sample retention time to the mean retention time of the bracketing standards.

[2] = Recovery of force-degraded MFM spiked into placebo cream and of active cream (0.1% MFM), HPLC; assay type: physicochemical
Method: MFM neat and degraded materials were spiked into placebo cream (lot #2020-11-01) to investigate potential partitioning effects and peak interferences and to compare spiked and active cream samples by the procedure in Table 50 with the exception that for acid, base and peroxide degradations, the additions of HCl, NaOH and peroxide were calculated accordingly.
Percent recovery of Force-Degraded Materials Spiked into Placebo is provided in Table 51 below while recovery of active cream formulation (0.1% MFM) is provided in Table 52 below.

[3] = stored at 25° C./60% RH, 1 Month, Mean
[4] = stored at 25° C./60% RH, 1 Month, Prep #1
[5] = stored at 25° C./60% RH, 1 Month, Prep #2
[6] = stored at 25° C./60% RH, 3 Month, Mean
[7] = stored at 25° C./60% RH, 3 Month, Prep #1
[8] = stored at 25° C./60% RH, 3 Month, Prep #2
[9] = stored at 30° C./65% RH, 1 Month, Mean
[10] = stored at 30° C./65% RH, 1 Month, Prep #1
[11] = stored at 30° C./65% RH, 1 Month, Prep #2
[12] = stored at 30° C./65% RH, 3 Month, Mean
[13] = stored at 30° C./65% RH, 3 Month, Prep #1
[14] = stored at 30° C./65% RH, 3 Month, Prep #2
[15] = stored at 40° C./75% RH, 1 Month, Mean
[16] = stored at 40° C./75% RH, 1 Month, Prep #1
[17] = stored at 40° C./75% RH, 1 Month, Prep #2
[18] = stored at 40° C./75% RH, 3 Month, Mean
[19] = stored at 40° C./75% RH, 3 Month, Prep #1
[20] = stored at 40° C./75% RH, 3 Month, Prep #2
[21] = stored at 25° C./60% RH, Initial, Mean
[22] = stored at 25° C./60% RH, Initial, Prep #2
[23] = stored at 30° C./65% RH, Initial, Mean
[24] = stored at 30° C./65% RH, Initial, Prep #2
[25] = stored at 40° C./75% RH, Initial, Mean
[26] = stored at 40° C./75% RH, Initial, Prep #2

Impurity (% of related substances) in Betamethasone Dipropionate Cream Formulation [1, 3]	Impurity (% of related substances) in Betamethasone Dipropionate Cream Formulation [1, 4]	Impurity (% of related substances) in Betamethasone Dipropionate Cream Formulation [1, 5]	Impurity (% of related substances) in Betamethasone Dipropionate Cream Formulation [1, 6]	Impurity (% of related substances) in Betamethasone Dipropionate Cream Formulation [1, 7]	Impurity (% of related substances) in Betamethasone Dipropionate Cream Formulation [1, 8]	Impurity (% of related substances) in Betamethasone Dipropionate Cream Formulation [1, 9]	Impurity (% of related substances) in Betamethasone Dipropionate Cream Formulation [1, 10]	Impurity (% of related substances) in Betamethasone Dipropionate Cream Formulation [1, 11]	Impurity (% of related substances) in Betamethasone Dipropionate Cream Formulation [1, 12]	Impurity (% of related substances) in Betamethasone Dipropionate Cream Formulation [1, 13]	Impurity (% of related substances) in Betamethasone Dipropionate Cream Formulation [1, 14]	Impurity (% of related substances) in Betamethasone Dipropionate Cream Formulation [1, 15]	Impurity (% of related substances) in Betamethasone Dipropionate Cream Formulation [1, 16]	Impurity (% of related substances) in Betamethasone Dipropionate Cream Formulation [1, 17]	Impurity (% of related substances) in Betamethasone Dipropionate Cream Formulation [1, 18]	Impurity (% of related substances) in Betamethasone Dipropionate Cream Formulation [1, 19]	Impurity (% of related substances) in Betamethasone Dipropionate Cream Formulation [1, 20]	Impurity (% of related substances) in Betamethasone Dipropionate Cream Formulation [1, 21]	Impurity (% of related substances) in Betamethasone Dipropionate Cream Formulation [1, 22]	Structure (SMILES)	further results
0.09%	0.08%	0.10%	0.22%	0.19%	0.25%	0.15%	0.13%	0.17%	0.50%	0.44%	0.56%	0.53%	0.48%	0.58%	1.99%	1.86%	2.12%			CCC(=O)OCC(=O)C1(O)C(C)CC2C3CCC4=CC(=O)C=CC4(C)C3(F)C(O)CC21C (stereo not drawn) [Lot 4]	
0.34%	0.31%	0.37%	0.49%	0.43%	0.54%	0.43%	0.38%	0.48%	0.73%	0.66%	0.79%	0.64%	0.59%	0.68%	0.93%	0.86%	0.99%	0.18%	0.20%	CCC(=O)OC1(C(=O)CO)C(C)CC2C3CCC4=CC(=O)C=CC4(C)C3(F)C(O)CC21C (stereo not drawn) [Lot 5]	Impurity (% of related substances) in Betamethasone Dipropionate Cream Formulation ([1]; stored at 25° C./60% RH, Initial, Prep #1): 0.16%; Impurity (% of related substances) in Betamethasone Dipropionate Cream Formulation [1, 23]: 0.18%; Impurity (% of related substances) in Betamethasone Dipropionate Cream Formulation ([1]; stored at 30° C./65% RH, Initial, Prep #1): 0.16%; Impurity (% of related substances) in Betamethasone Dipropionate Cream Formulation [1, 24]: 0.20%; Impurity (% of related substances) in Betamethasone Dipropionate Cream Formulation [1, 25]: 0.18%; Impurity (% of related substances) in Betamethasone Dipropionate Cream Formulation ([1]; stored at 40° C./75% RH, Initial, Prep #1): 0.16%; Impurity (% of related substances) in Betamethasone Dipropionate Cream Formulation [1, 26]: 0.20%
																		0.12%	0.12%	CCC(=O)OCC(=O)[C@@]1(OC(=O)CC)[C@@H](C)C[C@H]2[C@@H]3CC(Br)C4=CC(=O)C=C[C@]4(C)[C@@]3(F)[C@@H](O)C[C@@]21C (stereo partly drawn) [Lot 9]	Impurity (% of related substances) in Betamethasone Dipropionate Cream Formulation [1, 23]: 0.12%; Impurity (% of related substances) in Betamethasone Dipropionate Cream Formulation [1, 24]: 0.12%; Impurity (% of related substances) in Betamethasone Dipropionate Cream Formulation [1, 25]: 0.12%; Impurity (% of related substances) in Betamethasone Dipropionate Cream Formulation [1, 26]: 0.12%
																				C[C@@H]1C[C@H]2[C@@H]3CCC4=CC(=O)C=C[C@]4(C)[C@@]3(Cl)[C@@H](O)C[C@]2(C)[C@@]1(OC(=O)c1ccco1)C(=O)CCl.O [Mometasone Furoate Momohydrate]	Difference with Placebo (neat vs spiked recovery) ([2]; 0.1N HC1 (1 hour)): 5.23%; Difference with Placebo (neat vs spiked recovery) ([2]; 0.1N NaOH (1 hour)): 0.13%; Difference with Placebo (neat vs spiked recovery) ([2]; 3% H2O2 (1 hour)): 5.20%; Difference with Placebo (neat vs spiked recovery) ([2]; 60° C. (5 days)): 4.96%; Difference with Placebo (neat vs spiked recovery) ([2]; Control (neat MFM)): 5.87%; Difference with Placebo (neat vs spiked recovery) ([2]; White light (5 days)): 5.29%
